Reference: PMC6359543, “Efficacy of Azatyrosine-Phenylbutyric Hydroxamides, a Histone Deacetylase Inhibitor, on Chemotherapy-Induced Gastrointestinal Mucositis” (International Journal of Molecular Sciences, 2019)

What was measured:
[1] = system: Salmonella typhimurium TA1535; type: cell-based
[2] = system: Salmonella typhimurium TA102; details: Positive Control: 2-aminoanthrene 5 µg /plate
Experimental: Five strains of Salmonella typhimurium, TA98, TA102, TA100, TA1537, and TA1535, were obtained from Moltox (Boone, NC, USA). Mutagenicity was evaluated by the incorporation method in the presence or absence of S9 metabolic activation. A volume of 100 µL of each test bacterial culture (10^9 cells/mL), 2 mL soft agar (0.6% agar, 0.5% NaCl, 5 mM histidine, and […], pH 7.4, 40–50 °C), 0.5 mL S9 mixture (if necessary), and AzP were mixed well in a test tube. […] The revertant colonies were counted, and a positive mutagenic response was identified when (i) the number of revertants was at least double the spontaneous yield; (ii) a statistical significance (p ≤ 0.05) was found; and (iii) a reproducible positive dose response was present.

[3] = system: Salmonella typhimurium TA1537; test: Salmonella/microsome reversion assay (Ames test), TA1537; type: cell-based
[4] = system: Salmonella typhimurium TA100; type: cell-based
[5] = system: Salmonella typhimurium TA98; test: Salmonella/microsome reversion assay (Ames test), TA98; type: cell-based; details: Positive Control: 4-Nitro-o-phenylenediamine 2.5 µg / plate
male ICR mice = test: Micronucleus test; details: Cyclophosphamide 200 mg/kg
Experimental: Male ICR mice (n = 5) were administered AzP orally by gavage, at doses of 5, 50, and 500 mg/kg body weight. […] At 24, 48, and 72 h after dosing, 2-μL blood samples were collected from the tail vein onto a slide stained with acridine orange (40 μg/mL). The ratio (%) of polychromatic erythrocytes (PCEs) to total erythrocytes was determined using fluorescence microscopy. In addition, the frequency of micronucleated polychromatic erythrocytes (MNPCEs; ‰) was counted to a total of 1000 erythrocytes or PCEs per animal.

[6] = system: Chinese Hamster Ovary cells (CHO-K1); test: Chromosome aberration assay; type: cell-based; details: Mitomycin C 1µg/mL
Experimental: Chinese hamster ovary epithelial cells (CHO-K1, American Type Culture Collection, Manassas, VA, USA) were cultured in 6-cm dishes at a density of 2 × 10^5 cells/mL for chromosomal abnormality analysis. […] Colemid (0.1 μg/mL) was administered 3 h before trypsinization, followed by treatment with 0.9% sodium citrate at 37 °C and Carnoy’s solution (methanol:acetic acid, 3:1). The cells were stained with 3% Giemsa solution in 0.07 M phosphate buffer (pH 6.8) on glass slides. […] The data were expressed as the total mean number of chromosomal aberrations per treatment ± standard deviation (SD) from three independent experiments.

C57BL/6 mice = details: mouse, in vivo, ip, 11 mg/kg
IEC-6 cells = test: LPS-induced MAPK/Akt phosphorylation in IEC-6 cells (Western blot); type: cell-based, Rat; details: LPS 500 ng/mL, 10 min
Experimental: Figure 6 Western blotting of IEC-6 cells treated with LPS and/or AzP. (A) IEC-6 cells (1 × 10^6 cells/mL) were dispensed on 6 cm dishes and (A) treated with LPS (500 ng/mL) for 10, 20, 30, 60, and 90 min. Data expressed as means ± SD from 3 independent experiments. * p < 0.05 as compared with the resting. (B) Treatment with LPS (500 ng/mL) for 10 min as indicated. Cells were treated with the indicated concentrations of AzP (5, 10, and 20 μM) or vehicle for 30 min before treatment with LPS. Cell lysates were collected for Western blot targeting p-ERK phosphorylation (Thr202/Tyr204, B), MEK phosphorylation ([…], C), and Akt phosphorylation (Ser473, D). Data expressed as means ± SD from 3 independent experiments. ### p < 0.001 as compared with the resting, * p < 0.05, ** p < 0.01 and *** p < 0.001 as compared with the vehicle.
IEC-6 cells were incubated in different AzP concentrations with/without LPS stimulation for 24 h. The homogenate from cells or tissues was then centrifuged at 14,000× g for 10 min at 4 °C and the supernatant was collected. Protein separation was performed using 10% reducing SDS-PAGE, electrotransferred onto polyvinylidene difluoride (PVDF), and immunoblotted with antibodies against inflammatory proteins as well as β-actin as control. Densitometry was performed using BioLight software V2000.01 (Uhldingen-Mühlhofen, Germany). The optical density of specific protein was normalized to an internal control and expressed as a ratio to control.

[7] = Positive Control: 2-aminoanthrene 5 µg /plate
[8] = 3 hours without S9 metabolic activation
[9] = 24 hours without S9 metabolic activation
[10] = Positive Control: Sodium Azide 5 µg / plate

## Nc1ccc2cc3ccccc3cc2c1 [2-aminoanthrene, reference compound]
[1]; [7]
  Revertant colonies per plate (+S9) TA1535: 1182.9±81.6
[2]
  Revertant colonies per plate (+S9) TA102: 1409.8±78.2
[3]; [7]
  Revertant colonies per plate (+S9) TA1537: 1282.8±109
[4]; [7]
  Revertant colonies per plate (+S9) TA100: 1514.7±6.9

## Nc1ccc([N+](=O)[O-])cc1N [4-Nitro-o-phenylenediamine, reference compound]
[5]
  Revertant colonies per plate (-S9) TA98: 1549.3±37.6

## Nc1c2ccccc2nc2ccccc12 [9-Aminoacridine, reference compound]
[3]; Positive Control: 9-Aminoacridine 50 µg /plate
  Revertant colonies per plate (-S9) TA1537: 1671.8±184

## O=P1(N(CCCl)CCCl)NCCCO1 (stereo not drawn) [Cyclophosphamide, reference compound]
Male ICR mice; Day 1
  Reticuloctes(%): 1.60±0.12 %
Male ICR mice; Day 2
  Reticuloctes(%): 0.93±0.07 %
Male ICR mice; Day 3
  Reticuloctes(%): 1.07±0.16 %

## CO[C@@]12[C@H](COC(N)=O)C3=C(C(=O)C(C)=C(N)C3=O)N1C[C@@H]1N[C@@H]12 [Mitomycin C, reference compound]
[6]; [8]
  Aberrant cell (%) With gap: 7.67±1.15 %
  Number of cells with structural aberrations (%) B: chromosome break: 0.00±0.00%
  Number of cells with structural aberrations (%) G: chromosome gap: 0.00±0.00%
  Number of cells with structural aberrations (%) e: exchange: 2.00±1.00 %
[6]; [9]
  Aberrant cell (%) With gap: 10.00±1.73 %
  Number of cells with structural aberrations (%) B: chromosome break: 0.00±0.00%
  Number of cells with structural aberrations (%) G: chromosome gap: 0.00±0.00%
  Number of cells with structural aberrations (%) e: exchange: 4.33±2.52 %

## [N-]=[N+]=[N-].[Na+] [Sodium Azide, reference compound]
[1]; [10]
  Revertant colonies per plate (-S9) TA1535: 1506.7±62.3
[4]; [10]
  Revertant colonies per plate (-S9) TA100: 1433.6±94.4

## N.N.[Cl][Pt][Cl] [cisplatin, reference compound]
C57BL/6 mice
  Relative mean body weight (day 0 = 100%): 76.0 ± 4.7%

## lipopolysaccharide [LPS, reference compound]
IEC-6 cells
  ERK phosphorylation compared to the control: 1.8 ± 0.3 fold
